# Experimental data reported in ChEMBL document CHEMBL3045049, “Synthesis and antiviral activity of new 3-methyl-1,5-diphenyl-1H-pyrazole derivatives” (Med Chem Res, 2012).
# Calls of active or inactive are those of the source. No cut-off for these calls is given here.
# Assays:
# Human alphaherpesvirus 1 = test: Antiviral activity against Human herpesvirus 1 infected African green monkey Vero cells after 66 hr by viral plaque reduction assay; type: functional; design: concentration or dose not given beside the values
# Vero = test: Cytotoxicity against Chlorocebus aethiops (African green monkey) Vero cells after 24 hr; type: cell-based; details: chlorocebus sabaeus
Compound,Activity (Human alphaherpesvirus 1),Activity (Vero)
Cc1nn(-c2ccccc2)c(-c2ccccc2)c1C1CC(c2cccc(N)c2)=NO1 (centres undefined),22%,
Cc1ccc(C(=O)/C=C/c2c(C)nn(-c3ccccc3)c2-c2ccccc2)cc1,10%,
COc1ccc(C2=NN(c3ccccc3)C(c3c(C)nn(-c4ccccc4)c3-c3ccccc3)C2)cc1 (centres undefined),inactive,Toxic
Cc1nn(-c2ccccc2)c(-c2ccccc2)c1/C=C/C(=O)c1cccc(N)c1,10%,
COc1ccc(C(=O)/C=C/c2c(C)nn(-c3ccccc3)c2-c2ccccc2)cc1,inactive,Toxic
Cc1nn(-c2ccccc2)c(-c2ccccc2)c1/C=C/C(=O)c1ccc(N)cc1,inactive,Toxic
COc1ccc(OC)c(C2=NN(c3ccccc3)C(c3c(C)nn(-c4ccccc4)c3-c3ccccc3)C2)c1 (centres undefined),inactive,Toxic
Cc1nn(-c2ccccc2)c(-c2ccccc2)c1-c1cc(-c2ccc(Br)cc2)[nH]c(=O)c1C#N,52%,
Cc1ccc(C2=NN(c3ccccc3)C(c3c(C)nn(-c4ccccc4)c3-c3ccccc3)C2)cc1 (centres undefined),inactive,Toxic
Cc1nn(-c2ccccc2)c(-c2ccccc2)c1/C=C/C(=O)c1ccc(Br)cc1,22%,
Cc1ccc(C2=NNC(c3c(C)nn(-c4ccccc4)c3-c3ccccc3)C2)cc1 (centres undefined),22%,
Cc1nn(-c2ccccc2)c(-c2ccccc2)c1C1CC(c2ccc(Br)cc2)=NN1c1ccccc1 (centres undefined),inactive,Toxic
COc1ccc(OC)c(C(=O)/C=C/c2c(C)nn(-c3ccccc3)c2-c2ccccc2)c1,17%,
Cc1nn(-c2ccccc2)c(-c2ccccc2)c1-c1cc(-c2ccc(Br)cc2)nc(N2C(=O)c3ccccc3C2=O)c1C#N,22%,
Cc1nn(-c2ccccc2)c(-c2ccccc2)c1C1CC(c2ccc(N)cc2)=NN1 (centres undefined),10%,
Cc1nn(-c2ccccc2)c(-c2ccccc2)c1C1CC(c2ccc(Br)cc2)=NO1 (centres undefined),10%,
Cc1nn(-c2ccccc2)c(-c2ccccc2)c1C1CC(c2ccc(Br)cc2)=NN1 (centres undefined),18%,
Cc1nn(-c2ccccc2)c(-c2ccccc2)c1-c1cc(-c2ccc(Br)cc2)nc2nc(/C=C/C(=O)O)[nH]c(=O)c12,10%,
Nc1nc2c(ncn2COCCO)c(=O)[nH]1 [ACYCLOVIR],100%,
Cc1nn(-c2ccccc2)c(-c2ccccc2)c1C1CC(c2cccc(N)c2)=NN1c1ccccc1 (centres undefined),11%,
COc1ccc(C2=NNC(c3c(C)nn(-c4ccccc4)c3-c3ccccc3)C2)cc1 (centres undefined),22%,
COc1ccc(O)c(C2=NOC(c3c(C)nn(-c4ccccc4)c3-c3ccccc3)C2)c1 (centres undefined),inactive,Toxic
COc1ccc(OC)c(C2=NNC(c3c(C)nn(-c4ccccc4)c3-c3ccccc3)C2)c1 (centres undefined),22%,
Cc1nn(-c2ccccc2)c(-c2ccccc2)c1C1CC(c2ccc(N)cc2)=NN1c1ccccc1 (centres undefined),inactive,Toxic
CSc1cccc(Nc2nc(-c3ccc(C)cc3)cc(-c3c(C)nn(-c4ccccc4)c3-c3ccccc3)n2)c1,52%,
Cc1ccc(C2=NOC(c3c(C)nn(-c4ccccc4)c3-c3ccccc3)C2)cc1 (centres undefined),53%,
Cc1nn(-c2ccccc2)c(-c2ccccc2)c1C1CC(c2ccc(N)cc2)=NO1 (centres undefined),10%,
COc1ccc(C2=NOC(c3c(C)nn(-c4ccccc4)c3-c3ccccc3)C2)cc1 (centres undefined),inactive,Toxic
Cc1nn(-c2ccccc2)c(-c2ccccc2)c1C1CC(c2cccc(N)c2)=NN1 (centres undefined),15%,
Cc1nn(-c2ccccc2)c(-c2ccccc2)c1-c1cc(-c2ccc(Br)cc2)nc(N)c1C#N,51%,
